{"source": "patent US11149135B2", "about": "“Application of cyclodextrins (CDS) for remediation of perfluoroalkyl substances (PFASS)” (THE FLORIDA INTERNATIONAL UNIVERSITY BOARD OF TRUSTEES, priority 2017, dated 2021)", "key": {"[1]": {"details": "β-CD:legacy PFAS; from Wilson and Verrall, Langmuir; cited from earlier work"}, "[2]": {"test": "19F NMR β-CD:PFOA association constants in the presence and absence of HSA", "assay_type": "binding", "excerpt": "The capacity or remediation in a human host as a therapeutic application is illustrated by the competitive binding between Human Serum Albumin (HSA) and β-CD for PFOA. Different spectroscopic techniques were employed to understand the interactions between HSA, PFOA, and β-CD. The association between PFOA and β-CD in the presence of HSA in water was characterized using ^19F NMR experiments. Changes in the ^19F chemical shift of PFOA titrated with β-CD were monitored to compare the host-guest association in the presence and absence of 35 μM HSA. The observed change in chemical shift of each fluorine peak varied differently as a function of β-CD concentration. […] The association constants for fluorine atoms closer to the PFOA carboxylate head group with β-CD are weaker in the presence of HSA, whereas the fluorine atoms towards the end of the alkyl chain (tail) experience a stronger interaction with β-CD in the presence of HSA. The 1:1 β-CD:PFOA association constant decreases in the presence of HSA likely due to the interaction of the carboxylate group of PFOA with HSA that weakens the PFOA association to β-CD.\nNMR experiments were performed with a 400 MHz Bruker instrument with a quad probe (operating at 376.498 MHz for ^19F). Hexafluorobenzene was used as the internal standard with a chemical shift of −164.9 ppm."}, "[3]": {"test_system": "zebrafish (Danio rerio) embryo", "test": "Zebrafish embryo toxicity assay", "assay_type": "in vivo", "excerpt": "To assess the potential of β-CD to attenuate the developmental and lethal effects of PFOA, zebrafish (Danio rerio) embryo are used as a toxicological model. Practical advantages of the zebrafish embryo system include ease of rearing and a high fecundity, as well as small (˜1 mm) and nearly transparent embryos, rapid (≤5-7 day) embryo development, and a fully sequenced genome. As such, the zebrafish embryo has been employed to look at a wide range of environmental contaminants in terms of acute and chronic toxicity. Acute toxicological endpoints (e.g., embryotoxicity, teratogenicity, neurotoxicity) which are readily accessible in the zebrafish embryo model are, furthermore, aligned with the reported health concerns associated with PFOA, and the system has, indeed, been used to evaluate toxicity of PFOA and related perfluorinated alkyl substances.\nPerfluorooctanoic acid (PFOA, 96% purity) was purchased from Sigma-Aldrich. β-Cyclodextrin (β-CD, 98% purity) was purchased from Acros Organics. Both chemicals were used without further purification. Stock solutions of PFOA (7.25 mM, i.e., 3000 parts-per-million [ppm]), 1:1 β-CD:PFOA (β-CD: 7.25 mM, PFOA: 7.25 mM), and 2:1 β-CD:PFOA (β-CD: 14.50 mM, PFOA: 7.25 mM) were prepared with deionized water in polypropylene tubes. The solutions were sonicated until dissolution of the solids was achieved. A control solution of deionized water was also stored in a polypropylene tube. Stock solutions were subsequently diluted over a relevant range of concentrations for assessment of zebrafish embryo toxicity.\nAdult zebrafish were maintained in 30-L tanks at 28° C. with 14 h:10 h light/dark cycle, and bred (from approximately 10-30 individuals) above 10-L tanks in mesh enclosures. Eggs were collected (from the bottom of tanks) within 1 h of the end of the dark cycle, and following collection and washing, transferred to plates containing E3 medium. Eggs containing dead, or obviously poor quality embryos, were removed. The remaining embryos were used, within ˜2 hour post-fertilization (hpf), for toxicity assays.\nZebrafish Embryo Toxicity Assay Assays were conducted in polypropylene 24-well plates (Evergreen Scientific, Los Angeles, Calif.) with five embryos (4- to 32-cell stage) per replicate, i.e., well (n=4), in E3 medium for a total of 20 zebrafish embryos per treatment/concentration. Embryos were exposed to a range of PFOA concentrations (30, 50, 100, 150, 200, 250 and 300 ppm) alone, and in 1:1 and 2:1 ratios with β-CD, and subsequently observed at 1, 2, 3, 4 and 7 days post-fertilization (dpf) with a dissecting light microscope to assess mortality and relevant developmental toxicity. Exposures and assessments were repeated several times, in preliminary studies, to determine relevant concentration levels for PFOA, and generally confirm results. Lethality was calculated as the concentration corresponding to 50% mortality (LC50); the LC50 values, and their 95% confidence intervals, were calculated via Probit Analysis in SPSS. In addition to lethality, inhibition of embryo development was morphometrically assessed based on the interocular distance between eyes (as a proxy for body size) of 7 dpf embryos (i.e., eleuthero-embryo stage) as measured using Olympus DP2-BSW imaging software. Apparent neurobehavioral effects were additionally measured as the percent of 7-dpf eleuthero-embryos displaying listing (i.e., falling to one side) behavior within a 30 s period (with shaking between each measurement to allow embryos to right themselves). Statistical Analyses\nOne-way analysis of variance (ANOVA) of the LC50 values, as well as the interocular distance and percent listing at 7 dpf, was performed in GraphPad Prism. The significance level was set at p=0.05."}, "[4]": {"test": "19F NMR association constants of β-CD:legacy PFAS complexes", "assay_type": "binding", "details": "aqueous media, room temperature", "experimental": "A detailed comprehensive Nuclear Magnetic Resonance (NMR) spectral study of the complexation of PFASs to β-CD was conducted, Weiss-Errico and O'Shea, J. Hazardous Mat. 2017 329, 57-65, with highlights herein. […] Competition studies with adamantane-carboxylic acid and phenol confirmed the persistence of the β-CD:PFAS complex. The aqueous solution pH, ionic strength, and the presence of humic acid have only a modest influence on the β-CD:PFAS complexes. Table 2 gives the association constants for β-CD complexes with a sample of the PFASs studied, including perfluoroheptanoic acid (PFHpA), perfluorooctanoic acid (PFOA), perfluorononanoic acid (PFNA), perfluorooctane sulfonate (PFOS), and perfluorooctanesulfonamide (PFOSA)."}, "[5]": {"test": "Control experiments: interaction of internal standard with cyclodextrins", "details": "1.44×10−3 M", "method": "The solution consisted of 50% D2O and 50% DI H2O, adjusted to pH 7 with 0.036 M NaOH. […] Each cyclodextrin (α-, β-, γ-) was added at various stoichiometric ratios and the solution was sonicated until dissolution of the CD was achieved."}, "[6]": {"biological_target": "Human Serum Albumin (HSA) (Homo sapiens, UniProt P02768)", "sequence (P02768 25-609)": "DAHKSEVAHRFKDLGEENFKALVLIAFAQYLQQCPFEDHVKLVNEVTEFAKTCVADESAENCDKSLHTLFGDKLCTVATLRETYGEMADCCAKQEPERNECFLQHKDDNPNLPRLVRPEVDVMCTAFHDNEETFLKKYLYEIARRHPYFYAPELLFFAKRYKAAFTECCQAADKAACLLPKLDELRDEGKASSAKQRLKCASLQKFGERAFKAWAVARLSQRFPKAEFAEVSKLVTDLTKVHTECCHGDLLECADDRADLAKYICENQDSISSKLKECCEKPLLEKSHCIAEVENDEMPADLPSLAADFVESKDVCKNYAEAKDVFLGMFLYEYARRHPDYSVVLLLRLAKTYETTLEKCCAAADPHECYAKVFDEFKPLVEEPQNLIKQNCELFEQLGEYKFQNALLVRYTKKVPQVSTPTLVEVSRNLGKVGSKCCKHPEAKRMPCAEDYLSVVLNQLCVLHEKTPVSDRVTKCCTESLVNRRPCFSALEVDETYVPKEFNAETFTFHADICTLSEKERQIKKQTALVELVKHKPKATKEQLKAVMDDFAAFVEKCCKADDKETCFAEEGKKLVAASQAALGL", "test": "HSA fluorescence (steady state and lifetime): reversal of PFOA binding by β-CD", "method": "For the fluorescence spectroscopy experiments, stock solutions of PFOA (10 mM and 100 μM), β-CD (5 mM), and HSA (20 μM) were prepared with a 50 mM sodium phosphate buffer (pH 7.4) solution in polypropylene tubes\nSteady state emission experiments were performed with a PC1 Fluorometer (ISS Inc, Champaign, Ill.). The excitation wavelength was 295 nm, and the emission spectra were recorded between 305 and 440 nm using 1 nm slit width for both excitation and emission. The emission spectra were corrected for the inner filter effect; however, the inner filter effect was insignificant at the HSA concentrations used in this study. Fluorescence lifetime experiments (frequency-resolved) were performed with a ChronoFD Fluorometer (ISS Inc, Champaign, Ill.). The excitation wavelength was 280 nm and 2,5-diphenyloxazole (PPO) was used as a lifetime reference. For both steady state and fluorescence lifetime experiments, the concentration of HSA was 10 βM. PFOA and β-CD were titrated into the sample at various concentrations."}, "[7]": {"details": "50 mM Phosphate Buffer (pH 7.4)"}, "[8]": {"details": "50 mM Phosphate Buffer (pH 7.4) with 35 μM HSA"}}, "data": [{"smiles": "O=C(O)C(F)(F)C(F)(F)C(F)(F)C(F)(F)C(F)(F)F", "note": "[PFHxA, perfluorohexanoic acid]", "values": [{"measurement": "Legacy PFAS Kassoc", "setting": "[1]", "value": "2.35 +/− 0.46 × 10^4 M^−1"}]}, {"smiles": "O=C(O)C(F)(F)C(F)(F)C(F)(F)C(F)(F)C(F)(F)C(F)(F)C(F)(F)F", "note": "[PFOA, perfluorooctanoic acid]", "values": [{"measurement": "K1:1 β-CD:PFOA", "setting": "[2]; [7]", "value": "4.16 ± 0.88 × 10^5 M^−1"}, {"measurement": "K2:1 β-CD:PFOA", "setting": "[2]; [7]", "value": "6.42 ± 1.78 × 10^2 M^−1"}, {"measurement": "K1:1 β-CD:PFOA", "setting": "[2]; [8]", "value": "1.67 ± 0.33 × 10^5 M^−1"}, {"measurement": "K2:1 β-CD:PFOA", "setting": "[2]; [8]", "value": "9.09 ± 1.27 × 10^2 M^−1"}, {"measurement": "LC50", "setting": "[3]; 1 dpf, ppm PFOA", "value": "47.3±3.6", "unit": "ppm"}, {"measurement": "interocular distance", "setting": "[3]; 7 dpf, surviving embryos at sub-lethal concentrations ≤50 ppm PFOA, pooled", "value": "0.25±0.06", "unit": "mm"}, {"measurement": "percent of surviving embryos listing within a 30 second period", "setting": "[3]; 7 dpf, ≤50 ppm PFOA, pooled", "value": "96±9", "unit": "%"}, {"measurement": "lethality at 24 hpf", "setting": "[3]; PFOA concentrations above 100 ppm", "value": "all embryos dead"}, {"measurement": "embryos showing discernible deformities", "setting": "[3]; by 7 dpf, bent spines and edemas", "value": "~5", "unit": "%"}, {"measurement": "hatching rates", "setting": "[3]; surviving embryos, hatched by 3 dpf", "value": "unaffected"}, {"measurement": "K1:1 association constant", "setting": "[4]; 1:1 β-CD:PFAS complex", "value": "5.00 ± 0.10 × 10^5 M^−1"}, {"measurement": "K2:1 association constant", "setting": "[4]; 2:1 β-CD:PFAS complex", "value": "1.20 ± 0.50 × 10^3 M^−1"}]}, {"smiles": "Fc1c(F)c(F)c(F)c(F)c1F", "note": "[hexafluorobenzene, Hexafluorobenzene]", "values": [{"measurement": "interaction with cyclodextrins", "setting": "[5]", "value": "does not significantly interact with cyclodextrins"}]}, {"smiles": "OC[C@H]1O[C@@H]2O[C@H]3[C@H](O)[C@@H](O)[C@@H](O[C@H]4[C@H](O)[C@@H](O)[C@@H](O[C@H]5[C@H](O)[C@@H](O)[C@@H](O[C@H]6[C@H](O)[C@@H](O)[C@@H](O[C@H]7[C@H](O)[C@@H](O)[C@@H](O[C@H]8[C@H](O)[C@@H](O)[C@@H](O[C@H]1[C@H](O)[C@H]2O)O[C@@H]8CO)O[C@@H]7CO)O[C@@H]6CO)O[C@@H]5CO)O[C@@H]4CO)O[C@@H]3CO", "note": "[β-CD, β-Cyclodextrin]", "values": [{"measurement": "toxicity of β-CD alone", "setting": "[3]; tested range up to maximum concentration 1645 ppm (1.45 mM) β-CD", "value": "No discernible toxicity"}, {"measurement": "effect on PFOA binding to HSA, steady state fluorescence", "setting": "[6]; 10 μM HSA titrated with PFOA, 1:1 and 2:1 β-CD:PFOA ratios", "value": "cannot completely reverse the first PFOA binding to HSA"}, {"measurement": "fluorescence intensity and λmax of HSA with PFOA", "setting": "[6]; 10 μM HSA, 500 μM PFOA, 5:1 β-CD:PFOA ratio (2500 μM β-CD)", "value": "return to the values observed for HSA in the absence of PFOA"}, {"measurement": "fluorescence lifetime τ and α values of HSA with PFOA", "setting": "[6]; 10 μM HSA, 50:1 PFOA:HSA, 5:1 β-CD:PFOA ratio", "value": "identical to those determined for HSA in the absence of PFOA"}]}]}
